Laboratory results: patent US10407409B2, “6-(5-hydroxy-1H-pyrazol-1-yl)nicotinamide inhibitors of PHD” (Takeda Pharmaceutical Company Limited, priority 2013, dated 2019)

Tests used:
[1] = target: PHD2 enzyme (residues 181-417) (Homo sapiens (Human), UniProt Q9GZT9); test: Inhibition of PHD enzyme (LC/MS peptide hydroxylation assay); type: biochemical; conditions: PHD2 (residues 181-417) 5 nM, 60 min pre-incubation; -log(IC50), IC50 molar
Procedure: Example A Inhibition of PHD Enzyme
The IC50 values for the PHD2 enzyme (residues 181-417) were determined by mixing increasing amounts of inhibitor with a fixed amount of enzyme (5 nM, final concentration) and Biotin labeled peptide (Biotin-Asp-Leu-Glu-Met-Leu-Ala-Pro-Tyr-Ile-Pro-Met-Asp-Asp-Asp-Phe-Gln-Leu, 1 uM final concentration) and 2-Oxyglutarate (2 uM final concentration) in 50 mM HEPES, 50 mM KCl, 0.5 mM TCEP, 2 uM FeCl2, 0.1 mg/ml BSA, at pH 7.3. The reaction was conducted by pre-incubating the enzyme in the presence of inhibitor for 60 min at room temperature. The activity of the free enzyme was measured by adding the peptide, the 2-Oxoglutarate (see above for final concentrations), and Ascorbic Acid (1 mM final concentration). The enzymatic activity was quenched after 60 min by adding an excess of a tight binding inhibitor to the assay mixture. The amount of product released was measured by using a LC/MS system (Agilent HPLC with Applied Biosystems API3000 Mass Spectrometer). Data were analyzed using the classical isotherm equation for the determination of IC50 values and are pIC50, i.e., −log(IC50), where IC50 is molar concentration and are reported as pIC50, i.e., −log(IC50), where IC50 is molar concentration.

[2] = system: HIF1a protein in H9c2 rat cardiomyocytes; test: Cell-based HIF-alpha stabilization assay (inhibition of PHD in cells); conditions: 24 hrs compound incubation, HIF1a protein by ELISA; for EC50: Rattus norvegicus, H9c2, 24 h, read-out: Inhibition of PHD in cells (pEC50) (converted)
Procedure: Example B Inhibition of PHD in Cells
PHD Inhibition is Determined Using (Secondary Assay)
Cell-Based HIF-Alpha Stabilization Assay:
H9c2 rat cardiomyocytes (ATCC) were seeded in 96-well tissue culture microplates and cultured for 24 hours prior to addition of compounds (11 point range of serial dilutions) or dimethylsulfoxide vehicle. After 24 hrs of compound incubation, whole cell extracts were prepared by lysing cells in cell extraction buffer containing protease and phosphatase inhibitors (Meso-Scale Discovery). HIF1a protein content was assessed by ELISA (Meso-Scale Discovery) and expressed as a % relative to the maximum response obtained from the positive control, desferrioxamine (Sigma-Aldrich). Compound EC50s were obtained by curve-fitting using XLfit4 MicroSoft Excel curve-fitting software. Compound EC50pos were obtained using XLfit4 to calculate the compound concentration that results in 50% of the desferrioxamine maximum response.

Chain of PHD2 enzyme (residues 181-417) (Q9GZT9 181-417): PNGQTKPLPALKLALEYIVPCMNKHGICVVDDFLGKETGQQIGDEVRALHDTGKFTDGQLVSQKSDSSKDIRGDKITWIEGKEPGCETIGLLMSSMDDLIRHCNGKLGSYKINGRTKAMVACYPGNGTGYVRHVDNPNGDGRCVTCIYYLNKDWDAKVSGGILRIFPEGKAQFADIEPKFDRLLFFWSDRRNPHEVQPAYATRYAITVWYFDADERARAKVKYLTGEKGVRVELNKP

Structure (SMILES) | PHD Inhibition (pIC50) [1] | EC50 [2] [nM] | Inhibition of PHD in cells (pEC50) [2]
COc1cc(-c2cnn(-c3ccc(C(=O)NCC4CCN(C)CC4)cn3)c2O)ccn1 [Example 30, 6-(5-hydroxy-4-(2-methoxypyridin-4-yl)-1H-pyrazol-1-yl)-N-((1-methylpiperidin-4-yl)methyl)nicotinamide] | 7.5 | 2000 | 
COc1cc(-c2cnn(-c3ccc(C(=O)NC4CCN(C)CC4)cn3)c2O)ccn1 [Example 33, 6-(5-hydroxy-4-(2-methoxypyridin-4-yl)-1H-pyrazol-1-yl)-N-(1-methylpiperidin-4-yl)nicotinamide] | 7.4 | 1170 | 
COc1cc(-c2cnn(-c3ccc(C(=O)NCC4CCN(C)C4)cn3)c2O)ccn1 (centres unmarked) [Example 36, 6-(5-hydroxy-4-(2-methoxypyridin-4-yl)-1H-pyrazol-1-yl)-N-((1-methylpyrrolidin-3-yl)methyl)nicotinamide] | 7.4 | 1480 | 
COc1cc(-c2cnn(-c3ccc(C(=O)NCCCN4CCCCC4)cn3)c2O)ccn1 [Example 38, 6-(5-hydroxy-4-(2-methoxypyridin-4-yl)-1H-pyrazol-1-yl)-N-(3-(piperidin-1-yl)propyl)nicotinamide] | 7.5 |  | 6.02
CNC(=O)c1ccc(-n2ncc(-c3ccnc(OC)c3)c2O)nc1 [Example 40, 6-(5-hydroxy-4-(2-methoxypyridin-4-yl)-1H-pyrazol-1-yl)-N-methylnicotinamide] | 7.9 | 977 | 
COc1cc(-c2cnn(-c3ccc(C(=O)NC4CCN(C5CC5)CC4)cn3)c2O)ccn1 [Example 41, N-(1-cyclopropylpiperidin-4-yl)-6-(5-hydroxy-4-(2-methoxypyridin-4-yl)-1H-pyrazol-1-yl)nicotinamide] | 8 | 550 | 
COc1cc(-c2cnn(-c3ccc(C(=O)NCCCn4cccn4)cn3)c2O)ccn1 [Example 43, N-(3-(1H-pyrazol-1-yl)propyl)-6-(5-hydroxy-4-(2-methoxypyridin-4-yl)-1H-pyrazol-1-yl)nicotinamide] | 8.2 | 347 | 
COC[C@H]1CCC[C@H]1NC(=O)c1ccc(-n2ncc(-c3ccnc(OC)c3)c2O)nc1 [Example 45, 6-(5-hydroxy-4-(2-methoxypyridin-4-yl)-1H-pyrazol-1-yl)-N-((1R,2S)-2-(methoxymethyl)cyclopentyl)nicotinamide] | 8 | 562 | 
COc1cc(-c2cnn(-c3ccc(C(=O)NCC4CN(C)CCO4)cn3)c2O)ccn1 (centres unmarked) [Example 46, 6-(5-hydroxy-4-(2-methoxypyridin-4-yl)-1H-pyrazol-1-yl)-N-((4-methylmorpholin-2-yl)methyl)nicotinamide] | 7.8 | 1350 | 
COCC1(CNC(=O)c2ccc(-n3ncc(-c4ccnc(OC)c4)c3O)nc2)CCCC1 [Example 47, 6-(5-hydroxy-4-(2-methoxypyridin-4-yl)-1H-pyrazol-1-yl)-N-((1-(methoxymethyl)cyclopentyl)methyl)nicotinamide] | 8.4 | 355 | 
COc1cc(-c2cnn(-c3ccc(C(=O)NCC4CCCCO4)cn3)c2O)ccn1 (centres unmarked) [Example 48, 6-(5-hydroxy-4-(2-methoxypyridin-4-yl)-1H-pyrazol-1-yl)-N-((tetrahydro-2H-pyran-2-yl)methyl)nicotinamide] | 8 | 646 | 
COCC(C)CNC(=O)c1ccc(-n2ncc(-c3ccnc(OC)c3)c2O)nc1 (centres unmarked) [Example 49, 6-(5-hydroxy-4-(2-methoxypyridin-4-yl)-1H-pyrazol-1-yl)-N-(3-methoxy-2-methylpropyl)nicotinamide] | 7.9 | 871 | 
COc1cc(-c2cnn(-c3ccc(C(=O)NC(C)(C)CN(C)C)cn3)c2O)ccn1 [Example 51, N-(1-(dimethylamino)-2-methylpropan-2-yl)-6-(5-hydroxy-4-(2-methoxypyridin-4-yl)-1H-pyrazol-1-yl)nicotinamide] | 7.3 | 1820 | 
COc1cc(-c2cnn(-c3ccc(C(=O)N[C@H]4CC[C@@H](C)CC4)cn3)c2O)ccn1 [Example 52, 6-(5-hydroxy-4-(2-methoxypyridin-4-yl)-1H-pyrazol-1-yl)-N-((1s,4s)-4-methylcyclohexyl)nicotinamide] | 8.3 | 933 | 
N#Cc1ccc(-c2cnn(-c3ccc(C(=O)NCCC4CC4)cn3)c2O)cc1 [Example 53, 6-(4-(4-cyanophenyl)-5-hydroxy-1H-pyrazol-1-yl)-N-(2-cyclopropylethyl)nicotinamide] | 7.03 | 525 | 
CC[C@@H](C)NC(=O)c1ccc(-n2ncc(-c3ccc(C#N)cc3C)c2O)nc1 [Example 58, (R)—N-(sec-butyl)-6-(4-(4-cyano-2-methylphenyl)-5-hydroxy-1H-pyrazol-1-yl)nicotinamide] | 7.16 | 158 | 

More lines, main results first:

PHD Inhibition (pIC50) [1] | Structure (SMILES) | EC50 [2] [nM] | Inhibition of PHD in cells (pEC50) [2]
7.5 | COc1cc(-c2cnn(-c3ccc(C(=O)NCCC4CCCN4C)cn3)c2O)ccn1 (centres unmarked) [Example 31, 6-(5-hydroxy-4-(2-methoxypyridin-4-yl)-1H-pyrazol-1-yl)-N-(2-(1-methylpyrrolidin-2-yl)ethyl)nicotinamide] |  | 6.00
7.8 | COc1cc(-c2cnn(-c3ccc(C(=O)NCCCN4CCOCC4)cn3)c2O)ccn1 [Example 32, 6-(5-hydroxy-4-(2-methoxypyridin-4-yl)-1H-pyrazol-1-yl)-N-(3-morpholinopropyl)nicotinamide] | 813 | 
8 | CCNC(=O)c1ccc(-n2ncc(-c3ccnc(OC)c3)c2O)nc1 [Example 34, N-ethyl-6-(5-hydroxy-4-(2-methoxypyridin-4-yl)-1H-pyrazol-1-yl)nicotinamide] | 513 | 
7.8 | COc1cc(-c2cnn(-c3ccc(C(=O)NCCCn4ccnc4)cn3)c2O)ccn1 [Example 35, N-(3-(1H-imidazol-1-yl)propyl)-6-(5-hydroxy-4-(2-methoxypyridin-4-yl)-1H-pyrazol-1-yl)nicotinamide] |  | 5.50
7.3 | COc1cc(-c2cnn(-c3ccc(C(=O)NCCCN4CCCC4)cn3)c2O)ccn1 [Example 39, 6-(5-hydroxy-4-(2-methoxypyridin-4-yl)-1H-pyrazol-1-yl)-N-(3-(pyrrolidin-1-yl)propyl)nicotinamide] |  | 5.58
7.5 | CNCCCNC(=O)c1ccc(-n2ncc(-c3ccnc(OC)c3)c2O)nc1 [Example 42, 6-(5-hydroxy-4-(2-methoxypyridin-4-yl)-1H-pyrazol-1-yl)-N-(3-(methylamino)propyl)nicotinamide] | 3390 | 
8.1 | COc1cc(-c2cnn(-c3ccc(C(=O)NCCC(C)OC)cn3)c2O)ccn1 (centres unmarked) [Example 50, 6-(5-hydroxy-4-(2-methoxypyridin-4-yl)-1H-pyrazol-1-yl)-N-(3-methoxybutyl)nicotinamide] | 871 | 
7.22 | CC1(C)CC1NC(=O)c1ccc(-n2ncc(-c3ccc(C#N)cc3)c2O)nc1 (centres unmarked) [Example 54, 6-(4-(4-cyanophenyl)-5-hydroxy-1H-pyrazol-1-yl)-N-(2,2-dimethylcyclopropyl)nicotinamide] | 331 | 
7.2 | COC(C)(C)CNC(=O)c1ccc(-n2ncc(-c3ccc(C#N)cc3)c2O)nc1 [Example 55, 6-(4-(4-cyanophenyl)-5-hydroxy-1H-pyrazol-1-yl)-N-(2-methoxy-2-methylpropyl)nicotinamide] | 1860 | 
7.12 | COCC1(CNC(=O)c2ccc(-n3ncc(-c4ccc(C#N)cc4)c3O)nc2)CC1 [Example 56, 6-(4-(4-cyanophenyl)-5-hydroxy-1H-pyrazol-1-yl)-N-((1-(methoxymethyl)cyclopropyl)methyl)nicotinamide] | 1450 | 
6.98 | CN1CCC(CNC(=O)c2ccc(-n3ncc(-c4ccc(C#N)cc4)c3O)nc2)CC1 [Example 57, 6-(4-(4-cyanophenyl)-5-hydroxy-1H-pyrazol-1-yl)-N-((1-methylpiperidin-4-yl)methyl)nicotinamide] |  | 5.70
7.33 | Cc1cc(C#N)ccc1-c1cnn(-c2ccc(C(=O)NC3CCOCC3)cn2)c1O [Example 59, 6-(4-(4-cyano-2-methylphenyl)-5-hydroxy-1H-pyrazol-1-yl)-N-(tetrahydro-2H-pyran-4-yl)nicotinamide] | 70.8 | 
